Our source for the IC50 values is US12577228B2, “Dihydrocyclopenta-isoquinoline-sulfonamide derivatives compounds” (UCB Biopharma SRL, priority 2019, dated 2026).

The target in this test is T1, IgE-Tb / soluble IgE receptor FcεRIα with a Y131A mutation (Homo sapiens, UniProt P01854, N146Q/N252Q).
T1 construct: fused on or other part: Terbium chelate (LanthaScreen amine-reactive) on IgE-Fc; Alexa Fluor 488 hydrazide on the oxidised glycans of sFcεRIα; Both are labels and no part of the key
The test is described as follows: in vitro FRET assay: binding of IgE-Tb to receptor FcεRIα-Y131A-AF488 and its inhibition by compounds. The following applies: 5 nM IgE-Tb, 25 nM FcεRIα-Y131A-AF488, 2 hours at room temperature; read-out: FRET IC50 range.

T1 sequence (P01854 104-427 N146Q/N252Q): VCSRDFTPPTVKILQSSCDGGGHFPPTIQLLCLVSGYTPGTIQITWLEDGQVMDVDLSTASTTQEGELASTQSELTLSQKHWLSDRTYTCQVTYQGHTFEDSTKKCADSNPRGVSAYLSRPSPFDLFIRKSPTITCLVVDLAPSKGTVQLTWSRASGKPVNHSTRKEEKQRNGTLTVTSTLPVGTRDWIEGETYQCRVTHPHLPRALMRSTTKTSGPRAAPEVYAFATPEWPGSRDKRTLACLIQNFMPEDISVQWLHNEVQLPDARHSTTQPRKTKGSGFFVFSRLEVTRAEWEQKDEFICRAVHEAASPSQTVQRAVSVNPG
T1 sequence (P12319 26-201 Y156A partner): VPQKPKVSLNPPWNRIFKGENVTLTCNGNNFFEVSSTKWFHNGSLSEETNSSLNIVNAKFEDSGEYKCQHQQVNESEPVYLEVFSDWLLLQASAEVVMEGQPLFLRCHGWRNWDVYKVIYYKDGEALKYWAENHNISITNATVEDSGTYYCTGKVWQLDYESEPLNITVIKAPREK

The IC50 is the concentration at which inhibition is half-maximal. In the case of `CC(C)(F)CNS(=O)(=O)c1c2c(cc3cnc(C4CC4)cc13)C[C@@H](Nc1ccc(C(C)(C)O)nc1)C2` [Example 39, (7R)-3-cyclopropyl-N-(2-fluoro-2-methylpropyl)-7-[[6-(2-hydroxypropan-2-yl)pyridin-3-yl]amino]-7,8-dihydro-6H-cyclopenta[g]isoquinoline-5-sulfonamide], the IC50 is 10 to 50 nM. Regarding `CC(C)(F)CNS(=O)(=O)c1c2c(cc3cnc(C4CC4)cc13)CC(NC1=CS(=O)(=O)CC1)C2` (centres unmarked) [Example 40, 3-cyclopropyl-7-[(1,1-dioxo-2,3-dihydrothiophen-4-yl)amino]-N-(2-fluoro-2-methylpropyl)-7,8-dihydro-6H-cyclopenta[g]isoquinoline-5-sulfonamide], the 50% inhibitory concentration (IC50) fell in the range of 100 to 2000 nM. Under `Cc1ccc(S(=O)(=O)c2cncc(N[C@@H]3Cc4cc5cnc(C6CC6)cc5c(S(=O)(=O)NCC(C)(C)F)c4C3)c2)cn1` [Example 43, (7R)-3-cyclopropyl-N-(2-fluoro-2-methylpropyl)-7-[[5-(6-methylpyridin-3-yl)sulfonylpyridin-3-yl]amino]-7,8-dihydro-6H-cyclopenta[g]isoquinoline-5-sulfonamide] stands 10 to 50 nM. The value for `CCNC(=O)NC1Cc2cc3cnc(C4CC4)cc3c(S(=O)(=O)NCC(C)C)c2C1` (centres unmarked) [Example 44, 1-[3-cyclopropyl-5-(2-methylpropylsulfamoyl)-7,8-dihydro-6H-cyclopenta[g]isoquinolin-7-yl]-3-ethylurea] was 10 to 50 nM; that for `CCNC(=O)NC1CCc2c1cc1cnc(C3CC3)cc1c2S(=O)(=O)NCC(C)C` (centres unmarked) [Example 45, 1-[3-cyclopropyl-5-(2-methylpropylsulfamoyl)-7,8-dihydro-6H-cyclopenta[g]isoquinolin-8-yl]-3-ethylurea] was 100 to 2000 nM.

For the compound `CCNC(=O)NC1CCc2cc3cnc(C4CC4)cc3c(S(=O)(=O)NCC(C)C)c21` (centres unmarked) [Example 46, 1-[3-cyclopropyl-5-(2-methylpropylsulfamoyl)-7,8-dihydro-6H-cyclopenta[g]isoquinolin-6-yl]-3-ethylurea], the IC50 was in the range of 100 to 2000 nM. The value for `CC(C)CNS(=O)(=O)c1c2c(cc3cnc(C4CC4)cc13)C(O)CC2` (centres unmarked) [Example 47, 3-cyclopropyl-8-hydroxy-N-(2-methylpropyl)-7,8-dihydro-6H-cyclopenta[g]isoquinoline-5-sulfonamide] was 100 to 2000 nM; that for `CC(C)CNS(=O)(=O)c1c2c(cc3cnc(C4CC4)cc13)CCC2O` (centres unmarked) [Example 48, 3-cyclopropyl-6-hydroxy-N-(2-methylpropyl)-7,8-dihydro-6H-cyclopenta[g]isoquinoline-5-sulfonamide] was 100 to 2000 nM. The value for `CC(C)(F)CNS(=O)(=O)c1c2c(cc3cnc(C4CC4)cc13)CC1(COC(=O)N1)C2` (centres unmarked) [Example 49, 3′-cyclopropyl-N-(2-fluoro-2-methylpropyl)-2-oxospiro[1,3-oxazolidine-4,7′-6,8-dihydrocyclopenta[g]isoquinoline]-5′-sulfonamide] was 100 to 2000 nM. The value for `CC(C)(F)CNS(=O)(=O)c1c2c(cc3cnc(C4CC4)cc13)CC(CO)(Nc1nncn1-c1cccnc1)C2` (centres unmarked) [Example 50, 3-cyclopropyl-N-(2-fluoro-2-methylpropyl)-7-(hydroxymethyl)-7-[(4-pyridin-3-yl-1,2,4-triazol-3-yl)amino]-6,8-dihydrocyclopenta[g]isoquinoline-5-sulfonamide] was 100 to 2000 nM; that for `CC(C)(F)CNS(=O)(=O)c1c2c(cc3cnc(C4CC4)cc13)CN(c1cccnc1N)C2` [Example 51, 2-(2-aminopyridin-3-yl)-7-cyclopropyl-N-(2-fluoro-2-methylpropyl)-1,3-dihydropyrrolo[3,4-g]isoquinoline-9-sulfonamide] was 100 to 2000 nM; that for `CCNc1c(NC2Cc3cc4cnc(C5CC5)cc4c(S(=O)(=O)NCC(C)C)c3C2)c(=O)c1=O` (centres unmarked) [Example 53, 3-cyclopropyl-7-[[2-(ethylamino)-3,4-dioxocyclobuten-1-yl]amino]-N-(2-methylpropyl)-7,8-dihydro-6H-cyclopenta[g]isoquinoline-5-sulfonamide] was 10 to 50 nM. Consider `CC(C)CNS(=O)(=O)c1c2c(cc3cnc(C4CC4)cc13)CC(C(=O)NCC(C)(C)C)C2` (centres unmarked) [Example 54, 3-cyclopropyl-N-(2,2-dimethylpropyl)-5-(2-methylpropylsulfamoyl)-7,8-dihydro-6H-cyclopenta[g]isoquinoline-7-carboxamide], for which the IC50 fell in the range of 10 to 50 nM. As for `CC(C)CNS(=O)(=O)c1c2c(cc3cnc(C4CC4)cc13)CC(NS(C)(=O)=O)C2` (centres unmarked) [Example 55, 3-cyclopropyl-7-(methanesulfonamido)-N-(2-methylpropyl)-7,8-dihydro-6H-cyclopenta[g]isoquinoline-5-sulfonamide], the IC50 lay in the range of 50 to 100 nM.

Regarding `CC(C)(F)CNS(=O)(=O)c1c2c(cc3cnc(C4CC4)cc13)CC(c1nc3ccncc3[nH]1)C2` (centres unmarked) [Example 56, 3-cyclopropyl-N-(2-fluoro-2-methylpropyl)-7-(3H-imidazo[4,5-c]pyridin-2-yl)-7,8-dihydro-6H-cyclopenta[g]isoquinoline-5-sulfonamide], the IC50 was in the range of 50 to 100 nM. The value for `Cc1cc(Nc2nncn2C2Cc3cc4cnc(C5CC5)cc4c(S(=O)(=O)NCC(C)(C)F)c3C2)n(C)n1` (centres unmarked) [Example 57, 3-cyclopropyl-7-[3-[(2,5-dimethylpyrazol-3-yl)amino]-1,2,4-triazol-4-yl]-N-(2-fluoro-2-methylpropyl)-7,8-dihydro-6H-cyclopenta[g]isoquinoline-5-sulfonamide] was 100 to 2000 nM.

Regarding `CC(C)(F)CNS(=O)(=O)c1c2c(cc3cnc(C4CC4)cc13)CC(n1ccnc1NCC1CC1)C2` (centres unmarked) [Example 58, 3-cyclopropyl-7-[2-(cyclopropylmethylamino)imidazol-1-yl]-N-(2-fluoro-2-methylpropyl)-7,8-dihydro-6H-cyclopenta[g]isoquinoline-5-sulfonamide], the IC50 was in the range of 100 to 2000 nM. `CCNC(=O)CN1Cc2cc3cnc(C4CC4)cc3c(S(=O)(=O)NCC(C)C)c2C1` [Example 59, 2-[7-cyclopropyl-9-(2-methylpropylsulfamoyl)-1,3-dihydropyrrolo[3,4-g]isoquinolin-2-yl]-N-ethylacetamide]: the half-maximal inhibitory concentration (IC50) lay within 100 to 2000 nM. For `CC(C)CNS(=O)(=O)c1c2c(cc3cnc(C4CC4)cc13)CNC2` [Example 60, 7-cyclopropyl-N-(2-methylpropyl)-2,3-dihydro-1H-pyrrolo[3,4-g]isoquinoline-9-sulfonamide], the IC50 is 100 to 2000 nM. Under `CC(C)(F)CNS(=O)(=O)c1c2c(cc3cnc(C4CC4)cc13)C[C@@H](Nc1ccc(S(N)(=O)=O)nc1)C2` [Example 61, (7R)-3-cyclopropyl-N-(2-fluoro-2-methylpropyl)-7-[(6-sulfamoylpyridin-3-yl)amino]-7,8-dihydro-6H-cyclopenta[g]isoquinoline-5-sulfonamide] stands 10 to 50 nM; under `CC(C)(F)CNS(=O)(=O)c1c2c(cc3cnc(C4CC4)cc13)CC(Nc1cncc3[nH]cnc13)C2` (centres unmarked) [Example 62, 3-cyclopropyl-N-(2-fluoro-2-methylpropyl)-7-(3H-imidazo[4,5-c]pyridin-7-ylamino)-7,8-dihydro-6H-cyclopenta[g]isoquinoline-5-sulfonamide], 10 to 50 nM. The value for `CC(C)(F)CNS(=O)(=O)c1c2c(cc3cnc(C4CC4)cc13)CC(Nc1cc[nH]c(=O)c1)C2` (centres unmarked) [Example 63, 3-cyclopropyl-N-(2-fluoro-2-methylpropyl)-7-[(2-oxo-1H-pyridin-4-yl)amino]-7,8-dihydro-6H-cyclopenta[g]isoquinoline-5-sulfonamide] was 10 to 50 nM; that for `CCOC(=O)c1nnc(N[C@@H]2Cc3cc4cnc(C5CC5)cc4c(S(=O)(=O)NCC(C)(C)F)c3C2)s1` [Example 64, ethyl 5-[[(7R)-3-cyclopropyl-5-[(2-fluoro-2-methylpropyl)sulfamoyl]-7,8-dihydro-6H-cyclopenta[g]isoquinolin-7-yl]amino]-1,3,4-thiadiazole-2-carboxylate] was 10 to 50 nM; that for `CC(C)(F)CNS(=O)(=O)c1c2c(cc3nnc(C4CC4)cc13)CC(NC(=O)OC(C)(C)C)C2` (centres unmarked) [Example 65, tert-butyl N-[3-cyclopropyl-5-[(2-fluoro-2-methylpropyl)sulfamoyl]-7,8-dihydro-6H-cyclopenta[g]cinnolin-7-yl]carbamate] was 100 to 2000 nM.

Regarding `Cc1nnc(-c2ccc(NC3Cc4cc5nnc(C6CC6)cc5c(S(=O)(=O)NCC(C)(C)F)c4C3)cn2)o1` (centres unmarked) [Example 66, 3-cyclopropyl-N-(2-fluoro-2-methylpropyl)-7-[[6-(5-methyl-1,3,4-oxadiazol-2-yl)pyridin-3-yl]amino]-7,8-dihydro-6H-cyclopenta[g]cinnoline-5-sulfonamide], the IC50 fell in the range of 10 to 50 nM. Consider `Cc1nc(C2CC2)cc2c(S(=O)(=O)NCC(C)C)c3c(cc12)CCC3` [Example 67, 3-cyclopropyl-1-methyl-N-(2-methylpropyl)-7,8-dihydro-6H-cyclopenta[g]isoquinoline-5-sulfonamide], for which the IC50 lay within 100 to 2000 nM. Under `CC(C)CNS(=O)(=O)c1c2c(cc3cnc(C4CC4)cc13)OCO2` [Example 68, 7-cyclopropyl-N-(2-methylpropyl)-[1,3]dioxolo[4,5-g]isoquinoline-9-sulfonamide] stands 100 to 2000 nM.

With `CC(C)CNS(=O)(=O)c1c2c(cc3cnc(C4CC4)cc13)CCC2` [Example 69, 3-cyclopropyl-N-isobutyl-7,8-dihydro-6H-cyclopenta[g]isoquinoline-5-sulfonamide], the IC50 fell in the range of 50 to 100 nM. Consider `Cc1nnc(-c2ccc(N[C@@H]3Cc4cc5cnc(C6CC6)cc5c(S(=O)(=O)NCC(C)(C)F)c4C3)cc2)o1` [Example 70, (7R)-3-cyclopropyl-N-(2-fluoro-2-methylpropyl)-7-[4-(5-methyl-1,3,4-oxadiazol-2-yl)anilino]-7,8-dihydro-6H-cyclopenta[g]isoquinoline-5-sulfonamide], for which the IC50 lay within 10 to 50 nM.
